# Test results taken from ChEMBL document CHEMBL5316330, “Design of an Ultralow Molecular Weight Heparin That Resists Heparanase Biodegradation” (J Med Chem, 2023).
# Active and inactive are the calls of the source. The calls are words filed in the database; no cut-off is given here.
# How the values were obtained:
# [1] = Stability of compound assessed as heparanase-mediated compound degradation by measuring retention time at 20 ug incubated overnight by LC-MS analysis (reference value: 17 mins); type: physicochemical; conditions: dose 20 µg
# Coagulation factor X [2] = target: T1, Coagulation factor X (Homo sapiens, UniProt P00742); assay: Inhibition of human factor Xa using S-2765 as substrate at 7 to 3600 ng/ml preincubated with antithrombin for 3 mins followed by incubation with factor Xa for 2 mins and further incubated with substrate for 5 mins by absorbance based assay; conditions: dose 7-3600 ng/ml, time 10.0 min
# [3] = Stability of compound assessed as heparanase-mediated compound degradation by measuring retention time at 20 ug incubated overnight by LC-MS analysis (reference value: 10 mins); type: physicochemical; conditions: dose 20 µg
# Mus musculus [4] = assay: Anticoagulant activity in C57BL/6 mouse model of non-occlusive venous thrombosis assessed as average IVC weight at 4 ug/g, sc treated for 4 hrs prior to electrolytic injury and 24 hrs after injury (reference value: 31.5 +/- 2.3 mg); type: functional; conditions: dose 4 µg/g, time 28 hrs
# Mus musculus [5] = assay: Anticoagulant activity in C57BL/6 mouse model of non-occlusive venous thrombosis assessed as inhibition of factor Xa in plasma at 12 ug/g, sc treated for 1 hr prior to electrolytic injury and 24 hrs after injury; type: functional; conditions: dose 12 µg/g, time 25 hrs
# Coagulation factor X [6] = target: T1, Coagulation factor X; assay: Inhibition of human factor Xa using S-2765 as substrate preincubated with antithrombin for 3 mins followed by incubation with factor Xa for 2 mins and further incubated with substrate for 5 mins by absorbance based assay
# Mus musculus [7] = assay: Anticoagulant activity in C57BL/6 mouse model of non-occlusive venous thrombosis assessed as average IVC weight at 12 ug/g, sc treated for 1 hr prior to electrolytic injury and 24 hrs after injury (reference value: 31.5 +/- 2.3 mg); type: functional; conditions: dose 12 µg/g, time 25 hrs
# Mus musculus [8] = assay: Anticoagulant activity in C57BL/6 mouse model of non-occlusive venous thrombosis assessed as average bleeding time at 12 ug/g, sc treated for 1 hr prior to electrolytic injury and 24 hrs after injury (reference value: 81 +/- 3 mg); type: functional; conditions: dose 12 µg/g, time 25 hrs
# Coagulation factor X [9] = target: T1, Coagulation factor X; assay: Potency index, ratio of Enoxaparin IC50 to test compound IC50 for factor Xa (unknown origin) by ACTICHROME heparin assay
# T1 sequence (P00742 41-179 limits assumed): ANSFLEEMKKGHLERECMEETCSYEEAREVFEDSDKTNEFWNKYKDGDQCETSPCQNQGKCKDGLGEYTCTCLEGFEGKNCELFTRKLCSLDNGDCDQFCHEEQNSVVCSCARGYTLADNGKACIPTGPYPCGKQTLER
# T1 sequence (P00742 235-488 limits assumed): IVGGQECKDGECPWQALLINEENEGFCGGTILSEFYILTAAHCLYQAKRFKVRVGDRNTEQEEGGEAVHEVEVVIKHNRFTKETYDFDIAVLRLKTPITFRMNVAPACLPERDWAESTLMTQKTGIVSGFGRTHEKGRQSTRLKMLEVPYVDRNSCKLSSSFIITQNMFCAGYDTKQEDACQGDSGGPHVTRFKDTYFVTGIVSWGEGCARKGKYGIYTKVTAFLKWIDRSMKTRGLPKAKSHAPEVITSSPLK
SMILES,Retention_time [1] [min],inhibition (Coagulation factor X [2]),Retention_time [3] [min],Activity (Mus musculus [4]) [mg],Activity (Mus musculus [5]) [IU/ml],IC50 (Coagulation factor X [6]) [nM],Activity (Mus musculus [7]) [mg],Activity (Mus musculus [8]) [mg],fold change (FC) (Coagulation factor X [9])
O=C(O)[C@H]1O[C@@H](Oc2ccc([N+](=O)[O-])cc2)[C@H](O)[C@@H](O)[C@@H]1O[C@H]1O[C@H](COS(=O)(=O)O)[C@@H](O[C@@H]2O[C@@H](C(=O)O)[C@H](O[C@H]3O[C@H](COS(=O)(=O)O)[C@@H](O[C@@H]4O[C@H](C(=O)O)[C@@H](O[C@H]5O[C@H](COS(=O)(=O)O)[C@@H](O)[C@H](O)[C@H]5NS(=O)(=O)O)[C@H](O)[C@H]4O)[C@H](OS(=O)(=O)O)[C@H]3NS(=O)(=O)O)[C@H](O)[C@H]2OS(=O)(=O)O)[C@H](O)[C@H]1NS(=O)(=O)O,22,inactive,–,–,–,–,–,–,–
O=C(O)[C@H]1O[C@@H](O[C@H]2[C@H](O)[C@@H](NS(=O)(=O)O)[C@@H](O[C@@H]3[C@H](O)[C@@H](OS(=O)(=O)O)[C@H](O[C@H]4[C@H](OS(=O)(=O)O)[C@@H](NS(=O)(=O)O)[C@@H](O[C@H]5[C@H](O)[C@@H](OS(=O)(=O)O)[C@H](O[C@@H]6[C@H](O)[C@@H](NS(=O)(=O)O)[C@@H](O[C@H]7[C@H](O)[C@@H](O)[C@H](Oc8ccc([N+](=O)[O-])cc8)O[C@@H]7C(=O)O)O[C@@H]6COS(=O)(=O)O)O[C@@H]5C(=O)O)O[C@@H]4COS(=O)(=O)O)O[C@H]3C(=O)O)O[C@@H]2COS(=O)(=O)O)[C@H](O)[C@@H](O)[C@@H]1O,–,–,15,13.9,0.55,177,18.8,143,3
